The record followed here is patent US10695279B2, “Peptide having skin-whitening activity and use thereof” (CAREGEN CO., LTD., priority 2017, dated 2020).

Experiment [1] concerns melanin-forming cells (B16F10 cell line). Conditions: B16F10, α-MSH (200 ng/ml), peptide 50, 100, 200 uM, 72 hours; dose-dependent; FIG. 3. As for the experimental part: After melanin-forming cells (B16F10 cell line) dispensed in 6-well culture plates were incubated in a 37° C. incubator for 24 hours, the medium for each plate was removed and replaced with new medium (10% serum medium). Then, the cells were treated with α-MSH (200 ng/ml), arbutin (500 uM), or the peptide of the present invention at different concentrations (50, 100, 200 uM). The cells were incubated for 72 hours, and then the formed melanin was observed through an optical microscope.

Experiment [2] deals with T1, tyrosinase (Mus musculus, UniProt P11344).
T1 construct: endogenous in cells; host or cells: B16F10 mouse melanoma cells
T1 sequence (P11344 19-533): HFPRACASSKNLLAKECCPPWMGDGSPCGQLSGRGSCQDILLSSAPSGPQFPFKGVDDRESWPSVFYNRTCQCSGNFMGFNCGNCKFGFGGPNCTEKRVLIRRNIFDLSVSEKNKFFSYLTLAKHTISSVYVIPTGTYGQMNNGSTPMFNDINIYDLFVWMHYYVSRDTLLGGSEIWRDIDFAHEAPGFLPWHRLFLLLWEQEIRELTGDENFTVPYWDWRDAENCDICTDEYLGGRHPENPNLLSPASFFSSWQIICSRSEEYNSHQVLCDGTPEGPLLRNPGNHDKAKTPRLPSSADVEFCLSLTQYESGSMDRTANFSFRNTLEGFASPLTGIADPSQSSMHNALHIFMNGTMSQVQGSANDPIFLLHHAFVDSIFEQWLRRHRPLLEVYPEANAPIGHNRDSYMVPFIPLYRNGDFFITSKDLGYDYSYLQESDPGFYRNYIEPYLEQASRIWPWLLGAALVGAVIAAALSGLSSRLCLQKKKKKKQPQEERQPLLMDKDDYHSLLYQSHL
In words: Measurement of tyrosinase activity in cells (L-dopa, absorbance at 475 nm). It is filed as cell-based. Conditions: B16F10, α-MSH (200 ng/ml), peptide 50, 100, 200 uM, 72 hours; dose-dependent, **P≤0.01; FIG. 4. The protocol:
The 6-well culture plates were loaded on ice and washed with cool PBS, and then 300 μl of 0.1 M sodium phosphate buffer (pH 6.8 lysis buffer) containing 1% Triton X-100 was added. The cells were collected in a 1.5 mL tube, and then cell membranes were disrupted by repeating rapid-freezing at […] and thawing, five times. Then, the tube was centrifuged at 13,000 rpm for 20 minutes, and then the supernatant was collected in another 1.5 mL tube, and the protein content of the samples was quantified. The samples were diluted to have the same protein concentration and then dispensed in three wells each in a 96-well culture plate, and then 20 μl of 10 mM L-dopa was added, followed by incubation at 37° C. for 1 hour.

Experiment [3] deals with tyrosinase. Description: Measurement of tyrosinase expression level (fluorescence microscope, tyrosinase antibody). It is filed as cell-based, mouse. Conditions: B16F10, α-MSH (200 ng/ml), peptide 50, 100 uM, 48 hours; dose-dependent; FIG. 5. As for the experimental part:
Then, the cells were incubated for 48 hours, and the intracellular expression protein was stained with FITC-conjugated tyrosinase antibody (Santa Cruz biotechnology, USA) and FITC-conjugated secondary IgG antibody (Santa Cruz biotechnology, USA).

The subject of experiment [4] is MITF. The note with it: B16F10, α-MSH (200 ng/ml), peptide 100, 200 uM, 24 hours, PCR; FIG. 6. The protocol:
(§1) After melanin-forming cells (B16F10 cell line) were incubated in 6-well culture plates for 24 hours, the cells were treated with α-MSH (200 ng/ml), arbutin (500 uM), or the present peptide at different concentrations (100, 200 uM). After RNA was extracted from the cells incubated for 24 hours, cDNA was prepared. Then, PCR was conducted using the primers shown in Table 2 below, which are specific to MITF, tyrosinase, and TRP1, respectively, as melanogenesis-involved factors, and then the change in the expression of each gene was observed.

The subject of another experiment is TRP1. Conditions: B16F10, α-MSH (200 ng/ml), peptide 100, 200 uM, 24 hours, PCR; FIG. 6. The protocol: as §1
Experiment [5] has as its system tyrosinase. In words: Gene expression of melanin-forming factors (PCR): tyrosinase. It is filed as cell-based, mouse. Conditions: B16F10, α-MSH (200 ng/ml), peptide 100, 200 uM, 24 hours, FIG. 6.
The test system of a further experiment is CREB. The note with it: B16F10, α-MSH (200 ng/ml), peptide 50, 100 uM, 10 minutes, western blot; FIG. 8. As for the experimental part: (§2) After melanin-forming cells (B16F10 cell line) were incubated in 6-well culture plates for 24 hours, the cells were treated with α-MSH (200 ng/ml) or the present peptide at different concentrations (50, 100 uM).
The subject of experiment [6] is MITF. Conditions: B16F10, α-MSH (200 ng/ml), peptide 50, 100 uM, 72 hours, western blot; FIG. 7. As for the experimental part:
as §2

For experiment [7], the system named is tyrosinase. In words: Protein expression of melanin-forming factors (western blot): tyrosinase. The note with it: B16F10, α-MSH (200 ng/ml), peptide 50, 100 uM, 72 hours, FIG. 7. It is filed as cell-based, mouse.
In another experiment the test system is PAR2. Conditions: HaCaT, trypsin-induced, peptide 100, 200 uM, 16 hours, PCR; FIG. 9. As for the experimental part: After a human keratinocyte line (HaCaT) was incubated in 6-well culture plates for 24 hours, the cells were treated with trypsin as an activity-inducing material and the present peptide at different concentrations (100, 200 uM). After RNA was extracted from the cells incubated for 16 hours, cDNA was prepared.
PCR was conducted using a primer pair (see table 3 below) specific to PAR2, which is one of surface receptors of keratocytes activated by a trypsin action, and then the change in the expression of each gene was observed.

Experiment [8] deals with human keratinocyte line (HaCaT). The note with it: melanosomes isolated from B16F10, peptide 10, 50, 100, 200 uM, 48 hours, Fontana-Masson staining, dose-dependent, FIG. 11. As for the experimental part: After human keratinocyte line (HaCaT) was cultured in 6-well culture plates for 24 hours, the melanosomes isolated from mouse melanoma cell line (B16F10) were pretreated for 3 hours in serum-free culture medium. Then, the cells were treated with the present peptide at different concentrations (10, 50, 100, 200 uM) or arbutin (200 uM) as a positive control, followed by incubation for 48 hours. Then, the plates were washed with PBS to remove un-transferred melanosomes, and subjected to Fontana-Masson staining to observe the inhibition of the melanosome phagocytosis by keratinocytes through a microscope.

Experiment [9] has the same test system. Conditions: peptide 100, 200 uM, 24 hours, Vybrant Phagocytosis Assay Kit, FIG. 12. As for the experimental part:
After human keratinocyte line (HaCaT) was cultured in 24-well culture plates for 24 hours, the cells were treated with the present peptide at different concentrations (100, 200 uM) or arbutin (200 uM) as a positive control in 0.5% FBS culture medium, followed by incubation for 24 hours. Thereafter, the inhibition of phagocytosis of the human keratinocyte line was observed using the Vybrant Phagocytosis Assay Kit (V-6694).

Experiment [10] deals with melanin-forming cells (B16F10 cell line). Conditions: B16F10, α-MSH (200 ng/ml), peptide 50, 100, 200 uM, 72 hours; dose-dependent, **P≤0.01; FIGS. 2a and 2b.
Experimental: After melanin-forming cells (B16F10 cell line) dispensed in 6-well culture plates were incubated in a 37° C. incubator for 24 hours, the medium for each plate was removed and then replaced with new medium (2% serum medium). Then, the cells were treated with α-MSH (200 ng/ml), arbutin (200, 500 uM), or the peptide of the present invention at different concentrations (50, 100, 200 uM). Thereafter, the cells were incubated for 72 hours, and then the culture medium was removed. The cells were detached and then transferred into a 1.5 ml tube, followed by centrifugation at 13,000 rpm for 3 minutes. The supernatant was removed, and cell pellets were collected to observe melanin. Then, 150 μl of 2 M NaOH was added to the cell pellets to lyse intracellular melanin at 60° C. for 30 minutes. Then, 100 μl of the supernatant obtained from the lysis was added into each well of a 96-well plate, and the absorbance at 490 nm was measured.
Experiment [11] concerns human keratinocyte line (HaCaT). The note with it: melanosomes isolated from B16F10, peptide 10, 50, 100, 200 uM, 48 hours, FIG. 10.
Experimental: After human keratinocyte line (HaCaT) was cultured in 6-well culture plates for 24 hours, the melanosomes isolated from mouse melanoma cell line (B16F10) were pretreated for 3 hours in serum-free culture medium, and then the cells were treated with the present peptide at different concentrations (10, 50, 100, 200 uM) or arbutin (200 uM) as a positive control, followed by incubation for 48 hours. Then, the plates were washed with PBS to remove un-transferred melanosomes, and 1 N NaOH was added to pellets, which had been obtained through cell collection and precipitation. Then, 1 M NaOH was added to the pellets, and the pellets were dissolved in an oven at 80° C., and then the OD value at 490 nm was measured.
Experiment [12] has the same test system. Conditions: melanosomes pretreated 48 hours, peptide 100, 200 uM, dose-dependent, FIG. 13.
Experimental: After human keratinocyte line (HaCaT) was cultured in 6-well culture plates for 24 hours, melanosomes isolated from mouse melanoma cell line (B16F10) were pretreated for 48 hours in serum-free culture medium. The plates were washed with PBS to remove un-transferred melanosomes, and then the cells were treated with the peptide at different concentrations (100, 200 uM) or arbutin (200 uM) as a positive control, and TGFβ-1, followed by incubation for 48 hours. In order to measure the degradation of melanosomes phagocytized into keratinocytes, 1 M NaOH was added to pellets obtained by keratinocyte collection and precipitation, and the pellets were dissolved in an oven at 80° C., and then the OD value at 490 nm was measured.
The test system of a further experiment is C57BL/6 mice. In words: In vivo whitening effect, application to the tail. Conditions: C57BL/6 mice tail skin, liposomal peptide 5,000 ppm once a day, about 8 weeks, F&M staining, versus control group; FIGS. 14b and 14c.

Experimental for C57BL/6 mice: Liposomal peptide (5,000 ppm) or arbutin as a positive control was applied to the tail of 8-week-old C57BL/6 mice once a day, and the experiment was conducted for about 8 weeks. After the completion of the experiment, the mice were sacrificed to extract tail skin tissues, which were then embedded in paraffin to manufacture paraffin blocks. Then, the paraffin blocks were made into paraffin sections and morphologically observed through Fontana-Masson staining.

“Feruloyl-Ile-Trp-Ser-Leu-Asp-Thr-Gln-Tyr-Gly-Gly-Arg-Gly-Asp-COOH”: the “melanin formation observed through cell morphology” value in [1] is “melanogenesis inhibitory effect”. Also, the “tyrosinase activity in cells” value on tyrosinase [2] is recorded as “tyrosinase activity inhibitory effect”. Moreover, in the experiment on tyrosinase [3], the tyrosinase expression level result is recorded as “tyrosinase expression inhibitory effect”. In the experiment with MITF [4], the MITF gene expression result was “strong effects of inhibiting MITF, tyrosinase, and TRP1 genes”. For the same substance, the TRP1 gene expression result in the experiment on TRP1 was “strong effects of inhibiting MITF, tyrosinase, and TRP1 genes”. Moreover, the tyrosinase gene expression result in the experiment with tyrosinase [5] was “strong effects of inhibiting MITF, tyrosinase, and TRP1 genes”. Further, the “degree of phosphorylation of CREB” value with CREB is “CREB phosphorylation inhibitory effect”. For the same substance, the MITF protein expression entry with MITF [6] is “MITF and tyrosinase protein expression inhibitory effects”. In addition, the tyrosinase protein expression entry in the experiment with tyrosinase [7] is “MITF and tyrosinase protein expression inhibitory effects”. In the experiment on PAR2, the PAR2 gene expression entry was “reduced the expression of PAR2 gene in a dose-dependent manner”. The “amount of melanosomes transferred into keratinocytes (optical microscope image analysis)” value in [8] is “phagocytosis inhibitory effect”. Further, in experiment [9], the “amount of bioparticles transferred into keratinocytes (fluorescent microscopic image analysis)” value is reported as “distinctive phagocytosis inhibitory effect”. The melanin production entry in [10] is given as “melanogenesis inhibitory effect”. Also, in [11], the “amount of melanosomes transferred into keratinocytes (absorbance)” value is given as “phagocytosis inhibitory effect”. For the same substance, in [12], the “degradation of melanosomes transferred into keratinocytes” value was “promote the degradation of the melanosomes transferred into the keratinocytes”. For the same substance, the “amount of melanin distributed in the basal layer of the epidermis” value in the experiment with C57BL/6 mice is “significantly smaller than that in the control group”.
